Assay results reported in US20100317647A1 (priority 2009, published 2010).

biological target: human Cat S (Homo sapiens, UniProt P25774); assay: Cathepsin enzyme inhibition assay (fluorogenic peptide substrate cleavage); type: biochemical; conditions: human Cat S 1 nM; substrate Z-Val-Val-Arg-AMC 20 μM; pH 6.5; fluorescence over 20 minutes
Method: Cathepsin Enzyme Inhibition Assay
Enzyme activity is measured by observing the increase in fluorescence intensity caused by cleavage of a peptide substrate containing a fluorophore whose emission is quenched in the intact peptide.
Assay buffer: 100 mM potassium phosphate pH 6.5, EDTA-Na 5 mM, Triton X-100 0.001%, DTT 5 mM. Enzymes (all at 1 nM): human and mouse Cathepsin S, Cat K, Cat B, Cat L. Substrate (20 μM): Z-Val-Val-Arg-AMC, except for Cat K which uses Z-Leu-Arg-AMC (both from Bachem).
AMC=7-Amino-4-Methyl-Coumarin.
DTT=dithiothreitol. Final volume: 100 μL.
Excitation 360 nm, Emission 465 nm.
Enzyme is added to the substance dilutions in 96-well microtitre plates and the reaction is started with substrate. Fluorescence emission is measured over 20 minutes, during which time a linear increase is observed in the absence of inhibitor. IC50 are calculated by standard methods. Inhibition of human Cat S, mouse Cat S, human Cat K, mouse Cat K, human Cat B, mouse Cat B, human Cat L and mouse Cat L have been measured separately. The results obtained for human Cat S are expressed in the following table.

Sequence of human Cat S (P25774 115-331): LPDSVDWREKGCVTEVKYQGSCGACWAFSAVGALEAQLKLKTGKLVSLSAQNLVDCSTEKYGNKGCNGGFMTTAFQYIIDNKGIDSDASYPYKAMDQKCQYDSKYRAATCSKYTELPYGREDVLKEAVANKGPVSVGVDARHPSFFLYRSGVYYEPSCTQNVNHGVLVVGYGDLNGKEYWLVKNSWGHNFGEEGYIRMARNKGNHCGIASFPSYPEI

| SMILES | IC50 [nM] |
| --- | --- |
| N#CC1(NC(=O)C2CC(S(=O)(=O)c3ccc(OC4COC4)cc3C(F)(F)F)CC2C(=O)N2CC(F)(F)C2)CC1 (stereo not shown) [Example 127, 2-(3,3-Difluoro-azetidine-1-carbonyl)-4-[4-(oxetan-3-yloxy)-2-trifluoromethyl-benzenesulfonyl]-cyclopentanecarboxylic acid (1-cyano-cyclopropyl)-amide] | 1.1 |
| N#CC1(NC(=O)[C@@H]2C[C@@H](S(=O)(=O)c3ccc(F)cc3C(F)(F)F)C[C@H]2C(=O)N2CC(F)(F)C2)CC1 [Example 118, (1R,2R,4R)-2-(3,3-Difluoro-azetidine-1-carbonyl)-4-(4-fluoro-2-trifluoromethyl-benzenesulfonyl)-cyclopentanecarboxylic acid (1-cyano-cyclopropyl)-amide] | 3 |
| N#CC1(NC(=O)[C@@H]2C[C@@H](S(=O)(=O)c3ccccc3)C[C@H]2C(=O)O)CC1 [Example 10, (1R,2R,4R)-4-Benzenesulfonyl-2-(1-cyano-cyclopropylcarbamoyl)-cyclopentanecarboxylic acid] | 425 |
| N#CC1(NC(=O)[C@@H]2C[C@@H](S(=O)(=O)c3ccc(C4CC4)cc3C(F)(F)F)C[C@H]2C(=O)N2CC(F)(F)C2)CC1 [Example 125, (1R,2R,4R)-4-(4-Cyclopropyl-2-trifluoromethyl-benzenesulfonyl)-2-(3,3-difluoro-azetidine-1-carbonyl)-cyclopentanecarboxylic acid (1-cyano-cyclopropyl)-amide] | 0.3 |
| N#CC1(NC(=O)[C@H]2CC[C@H](S(=O)(=O)c3ccc(N4CC5(COC5)C4)cc3Cl)C2)CC1 (racemic) [Example 95, (1S,3S) and (1R,3R)-3-[2-chloro-4-(2-oxa-6-aza-spiro[3.3]hept-6-yl)-benzenesulfonyl]-cyclopentanecarboxylic acid (1-cyano-cyclopropyl)-amide] | 140 |
| Cn1nccc1-c1ccc(S(=O)(=O)[C@@H]2C[C@@H](C(=O)NC3(C#N)CC3)[C@H](C(=O)N3CCC(F)(F)C3)C2)c(Cl)c1 [Example 196, (1R,2R,4R)-4-[2-Chloro-4-(2-methyl-2H-pyrazol-3-yl)-benzenesulfonyl]-2-(3,3-difluoro-pyrrolidine-1-carbonyl)-cyclopentanecarboxylic acid (1-cyano-cyclopropyl)-amide] | 0.215 |
| N#CC1(NC(=O)[C@@H]2C[C@@H](S(=O)(=O)c3ccccc3Cl)C[C@H]2OCc2ccc(C(F)(F)F)cc2)CC1 (racemic) [Example 247, (1R,2R,4R) and (1S,2S,4S)-4-(2-chlorophenylsulfonyl)-N-(1-cyanocyclopropyl)-2-(4-(trifluoromethyl)benzyloxy)cyclopentanecarboxamide] | 5.98 |
| N#CCNC(=O)[C@@H]1C[C@@H](S(=O)(=O)c2ccccc2Cl)C[C@H]1O (racemic) [Example 49, (1R,2R,4R) and (1S,2S,4S)-4-(2-Chloro-benzenesulfonyl)-2-hydroxy-cyclopentanecarboxylic acid cyanomethyl-amide] | 82.3 |
| N#CC1(NC(=O)[C@@H]2C[C@@H](S(=O)(=O)c3ccccc3)C[C@H]2C(=O)N2CCOCC2)CC1 [Example 2, (1R,2R,4R)-4-Benzenesulfonyl-2-(morpholine-4-carbonyl)-cyclopentanecarboxylic acid (1-cyano-cyclopropyl)-amide] | 0.7 |
| CO[C@@H]1C[C@H](S(=O)(=O)c2ccc(Oc3ccc(F)cc3)cc2Cl)C[C@H]1C(=O)NC1(C#N)CC1 (racemic) [Example 57, (1R,2R,4R) and (1S,2S,4S)-4-[2-Chloro-4-(4-fluoro-phenoxy)-benzenesulfonyl]-2-methoxy-cyclopentanecarboxylic acid (1-cyano-cyclopropyl)-amide] | 21.8 |
| N#CC1(NC(=O)[C@@H]2C[C@@H](S(=O)(=O)c3ccccc3Cl)C[C@H]2OCc2c(F)cc(Cl)cc2F)CC1 (racemic) [Example 251, (1R,2R,4R) and (1S,2S,4S)-4-(2-Chloro-benzenesulfonyl)-2-(4-chloro-2,6-difluoro-benzyloxy)-cyclopentanecarboxylic acid (1-cyano-cyclopropyl)-amide] | 6.11 |
| N#CC1(NC(=O)C2CC(S(=O)(=O)c3ccc(-n4cccn4)cc3C(F)(F)F)CC2C(=O)N2CC(F)(F)C2)CC1 (stereo not shown) [Example 128, 2-(3,3-Difluoro-azetidine-1-carbonyl)-4-(4-pyrazol-1-yl-2-trifluoromethyl-benzenesulfonyl)-cyclopentanecarboxylic acid (1-cyano-cyclopropyl)-amide] | 0.7 |
| CN(C)C(=O)[C@@H]1C[C@H](S(=O)(=O)c2ccccc2)C[C@H]1C(=O)NC1(C#N)CC1 [Example 27, (1R,2R,4R)-4-Benzenesulfonyl-cyclopentane-1,2-dicarboxylic acid 1-[(1-cyano-cyclopropyl)-amide]2-dimethylamide] | 6.2 |
| CO[C@@H]1C[C@H](S(=O)(=O)c2ccc(Cl)cc2Cl)C[C@H]1C(=O)NCC#N (racemic) [Example 51, (1R,2R,4R) and (1S,2S,4S)-4-(2,4-Dichloro-benzenesulfonyl)-2-methoxy-cyclopentanecarboxylic acid cyanomethyl-amide] | 20 |
| N#CCNC(=O)[C@@H]1C[C@@H](S(=O)(=O)c2ccccc2)C[C@H]1C(=O)N1CCOCC1 [Example 1, (1R,2R,4R)-4-Benzenesulfonyl-2-(morpholine-4-carbonyl)-cyclopentanecarboxylic acid cyanomethyl-amide] | 0.6 |
| N#CC1(NC(=O)[C@@H]2C[C@@H](S(=O)(=O)c3ccc(Cl)cc3Cl)C[C@H]2OCc2ccc(Cl)cc2)CC1 (racemic) [Example 233, (1R,2R,4R) and (1S,2S,4S)-2-(4-Chloro-benzyloxy)-4-(2,4-dichloro-benzenesulfonyl)-cyclopentanecarboxylic acid (1-cyano-cyclopropyl)-amide] | 10.5 |
| N#CC1(NC(=O)[C@@H]2C[C@@H](S(=O)(=O)c3ccccc3)C[C@H]2C(=O)N2CCC2)CC1 [Example 24, (1R,2R,4R)-2-(Azetidine-1-carbonyl)-4-benzenesulfonyl-cyclopentanecarboxylic acid (1-cyan o-cyclopropyl)-amide] | 9.6 |

Further lines, results first:

| IC50 [nM] | SMILES |
| --- | --- |
| 1.85 | N#CC1(NC(=O)[C@@H]2C[C@@H](S(=O)(=O)c3ccccc3C(F)(F)F)C[C@H]2OCc2ccc(Cl)cc2)CC1 (racemic) [Example 232, (1R,2R,4R) and (1S,2S,4S)-2-(4-Chloro-benzyloxy)-4-(2-trifluoromethyl-benzenesulfonyl)-cyclopentanecarboxylic acid (1-cyano-cyclopropyl)-amide] |
| 0.6 | CO[C@@H]1C[C@H](S(=O)(=O)c2ccc(-c3cc(C)nn3C)cc2C(F)(F)F)C[C@H]1C(=O)NC1(C#N)CC1 (racemic) [Example 67, (1R,2R,4R) and (1S,2S,4S)-4-[4-(2,5-Dimethyl-2H-pyrazol-3-yl)-2-trifluoromethyl-benzenesulfonyl]-2-methoxy-cyclopentanecarboxylic acid (1-cyano-cyclopropyl)-amide] |
| 1 | CO[C@@H]1C[C@H](S(=O)(=O)c2ccc(-c3cc[nH]n3)cc2C(F)(F)F)C[C@H]1C(=O)NC1(C#N)CC1 (racemic) [Example 73, (1R,2R,4R) and (1S,2S,4S)-2-Methoxy-4-[4-(1H-pyrazol-3-yl)-2-trifluoromethyl-benzenesulfonyl]-cyclopentanecarboxylic acid (1-cyano-cyclopropyl)-amide] |
| 0.2 | Cc1cc(-c2ccc(S(=O)(=O)[C@H]3C[C@@H](OC(C)C)[C@H](C(=O)NC4(C#N)CC4)C3)c(C(F)(F)F)c2)ccn1 (racemic) [Example 140, (1R,2R,4R) and (1S,2S,4S)-2-Isopropoxy-4-[4-(2-methyl-pyridin-4-yl)-2-trifluoromethyl-benzenesulfonyl]-cyclopentanecarboxylic acid (1-cyano-cyclopropyl)-amide] |
| 0.725 | CO[C@@H]1C[C@H](S(=O)(=O)c2ccc(-c3cnn(CC(=O)O)c3)cc2C(F)(F)F)C[C@H]1C(=O)NC1(C#N)CC1 (racemic) [Example 185, (4-{4-[(1R,3R,4R) and (1S,3S,4S)-3-(1-Cyano-cyclopropylcarbamoyl)-4-methoxy-cyclopentanesulfonyl]-3-trifluoromethyl-phenyl}-pyrazol-1-yl)-acetic acid] |
| 0.5 | COc1cncc(-c2ccc(S(=O)(=O)[C@H]3C[C@@H](OC)[C@H](C(=O)NC4(C#N)CC4)C3)c(C(F)(F)F)c2)c1 (racemic) [Example 86, (1R,2R,4R) and (1S,2S,4S)-2-Methoxy-4-[4-(5-methoxy-pyridin-3-yl)-2-trifluoromethyl-benzenesulfonyl]-cyclopentanecarboxylic acid (1-cyano-cyclopropyl)-amide] |
| 0.3 | COC(=O)Cn1cc(-c2ccc(S(=O)(=O)[C@H]3C[C@@H](OC)[C@H](C(=O)NC4(C#N)CC4)C3)c(C(F)(F)F)c2)cn1 (racemic) [Example 179, (4-{4-[(1R,3R,4R) and (1S,3S,4S)-3-(1-Cyano-cyclopropylcarbamoyl)-4-methoxy-cyclopentanesulfonyl]-3-trifluoromethyl-phenyl}-pyrazol-1-yl)-acetic acid methyl ester] |
| 0.5 | CO[C@@H]1C[C@H](S(=O)(=O)c2ccc(-c3ccc(S(C)(=O)=O)cc3)cc2C(F)(F)F)C[C@H]1C(=O)NC1(C#N)CC1 (racemic) [Example 75, (1R,2R,4R) and (1S,2S,4S)-4-(4′-Methanesulfonyl-3-trifluoromethyl-biphenyl-4-sulfonyl)-2-methoxy-cyclopentanecarboxylic acid (1-cyano-cyclopropyl)-amide] |
